The source of these data is patent US11254688B2 (Boehringer Ingelheim International GmbH, priority 2018, dated 2022).

For this test, the target named is T1, hGOAT (Homo sapiens, UniProt Q96T53).
T1 construct: expressed in transfected cells; host or cells: HEK293 (Hek293 hGOAT/PPGhrl Clone #1B8)
T1 sequence (Q96T53 1-435): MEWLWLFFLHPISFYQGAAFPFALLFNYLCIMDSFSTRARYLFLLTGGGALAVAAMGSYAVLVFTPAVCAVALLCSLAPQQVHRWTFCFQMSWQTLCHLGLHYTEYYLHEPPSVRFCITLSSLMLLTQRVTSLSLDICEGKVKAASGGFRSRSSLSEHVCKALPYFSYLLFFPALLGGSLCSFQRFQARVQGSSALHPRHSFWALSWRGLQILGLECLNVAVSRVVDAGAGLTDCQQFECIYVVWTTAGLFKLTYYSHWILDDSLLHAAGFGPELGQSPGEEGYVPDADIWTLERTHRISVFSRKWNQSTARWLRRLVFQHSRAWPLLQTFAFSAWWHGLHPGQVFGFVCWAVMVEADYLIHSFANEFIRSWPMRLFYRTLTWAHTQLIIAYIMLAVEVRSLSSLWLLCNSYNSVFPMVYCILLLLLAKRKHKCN
Description: Determination of hGOAT activity in HEK293 cells after incubation with test compound (acyl-ghrelin ELISA). The following applies: HEK293 cells stably transfected with preproghrelin and human GOAT; octanoate-BSA 100 μM; 5 hours incubation; acyl-ghrelin in medium by ELISA; 8 compound concentrations. Format: cell-based. The protocol:
Determination of hGOAT Activity in HEK293 Cells after Incubation with Test Compound
HEK293 cells stably transfected with two expression vectors, one coding for preproghrelin cDNA and a second for the expression of human GOATcDNA are used as a cellular model. After feeding the cells with octanoic acid for 5 hours, acyl-ghrelin is measured in cell culture medium by an ELISA procedure.
Cellline: Hek293 hGOAT/PPGhrl Clone #1B8Sodium octanoate, Sigma, Cat.-No. C5038
BD Poly-D-Lysin 384-well Plates, black-clear polystyrene BD Bioscience Cat.-No. […] ELISA human acylated Ghrelin Kit purchased from Bertin Pharman (detailed composition of buffers e.g. wash-puffer, ELISA buffer not known)
Cells are plated with a density of 5000 cells/well in 384-well poly-D-lysin plates and incubated for 1 day at 37° C., 5% CO2 in DMEM medium, 10% FCS, 1×NEAA, Puromycin (0.5 μg/ml) and G418 (1 mg/ml). Then the medium is changed to a identical medium without FCS and containing Octanoate-BSA (final concentration 100 μM each) and compound in DMSO (final DMSO concentration 0,3%). After incubation for 5 hours acylghrelin in the medium is measured by ELISA.
The medium sample is diluted 1:25 in Elisa buffer, a 25 μl aliquot is transferred to a 384-well ELISA plate previously washed 4 times with 100 μL wash buffer, and 25 μl tracer-solution is added. After incubation overnight (˜20 h) at 4° C. temperature the plate is washed 4 times with 100 μl wash-buffer per well. Finally 50 μl Ellman's reagent is added to each well and the plate is incubated in the dark for 20 minutes. The absorbance is measured at 405 nm in an Envision multilabel reader and the amount of acylated ghrelin is calculated according to a acylated ghrelin standard curve provided in the same plate.
The analysis of the data is performed by calculation of the percentage of acyl-ghrelin produced in the presence of test compound compared to the amount of acyl-ghrelin produced in the vehicle control samples. An inhibitor of the GOAT enzyme will give values between 100% CTL (no inhibition) and 0% CTL (complete inhibition).
IC50 values are calculated with Assay Explorer or other suited software based on curve fitting of results of 8 different compound concentrations.
The compound `Cc1nc2nonc2c(N)c1Cc1ccc(OC(F)F)cc1` [Compound 4.33, 6-{[4-(Difluoromethoxy)phenyl]methyl}-5-methyl-[1,2,5]oxadiazolo[3,4-b]pyridin-7-amine] registered an IC50 of 0.114 nM.

Turning to `Cc1nc2nonc2c(N)c1Cc1ccc(F)c(C#N)c1` [Compound 2.9, 5-({7-Amino-5-methyl-[1,2,5]oxadiazolo[3,4-b]pyridin-6-yl}methyl)-2-fluorobenzonitrile], half-maximal inhibition (IC50) was put at 2.01 nM. `COc1cccc(Cc2c(C)nc3nonc3c2N)c1` [Compound 4.51, 6-[(3-Methoxyphenyl)methyl]-5-methyl-[1,2,5]oxadiazolo[3,4-b]pyridin-7-amine] came in with an IC50 of 0.673 nM. This IC50 lies about 3-fold lower than the previous one. In the case of `Cc1nc2nonc2c(N)c1Cc1ccnc(Cl)c1` [Compound 4.55, 6-[(2-Chloropyridin-4-yl)methyl]-5-methyl-[1,2,5]oxadiazolo[3,4-b]pyridin-7-amine] it was 6.27 nM; in that of `Cc1nc2nonc2c(N)c1Cc1ccc(C2(C#N)CCCC2)nc1` [Compound 4.26, 1-[5-({7-Amino-5-methyl-[1,2,5]oxadiazolo[3,4-b]pyridin-6-yl}methyl)pyridin-2-yl]cyclopentane-1-carbonitrile], 0.098 nM; in that of `Cc1nc2nonc2c(N)c1Cc1ccnc(C#N)c1` [Compound 4.39, 4-({7-Amino-5-methyl-[1,2,5]oxadiazolo[3,4-b]pyridin-6-yl}methyl)pyridine-2-carbonitrile], 9.39 nM. `Cc1nc2nonc2c(N)c1Cc1ccc(OC2CCOC2)nc1` (stereo not drawn) [Compound 21.10, 5-Methyl-6-{[6-(oxolan-3-yloxy)pyridin-3-yl]methyl}-[1,2,5]oxadiazolo[3,4-b]pyridin-7-amine] had an IC50 of 2.57 nM. Against the preceding compound, the IC50 is about 3.7-fold lower. In the case of `Cc1nc2nonc2c(N)c1Cc1cnc(C(F)(F)F)c(C#N)c1` [Compound 4.60, 5-({7-Amino-5-methyl-[1,2,5]oxadiazolo[3,4-b]pyridin-6-yl}methyl)-2-(trifluoromethyl)pyridine-3-carbonitrile] it was 6.74 nM. The compound `Cc1nc2nonc2c(N)c1Cc1ccc(SC(F)(F)F)cc1` [Compound 4.32, 5-Methyl-6-({4-[(trifluoromethyl)sulfanyl]phenyl}methyl)-[1,2,5]oxadiazolo[3,4-b]pyridin-7-amine] gave an IC50 of 0.064 nM. In the case of `COc1ncccc1Cc1c(C)nc2nonc2c1N` [Compound 2.11, 6-[(2-Methoxypyridin-3-yl)methyl]-5-methyl-[1,2,5]oxadiazolo[3,4-b]pyridin-7-amine], the IC50 worked out at 1.07 nM. This IC50 is about 17-fold higher than that of the compound before. In the case of `Cc1nc2nonc2c(N)c1Cc1ccc(C(C)(C)C#N)nc1` [Compound 4.24, 2-[5-({7-Amino-5-methyl-[1,2,5]oxadiazolo[3,4-b]pyridin-6-yl}methyl)pyridin-2-yl]-2-methylpropanenitrile] it was 0.838 nM; in that of `Cc1nc2nonc2c(N)c1Cc1ccc(OC(F)(F)F)c(C(N)=O)c1` [Compound 15.2, 5-({7-Amino-5-methyl-[1,2,5]oxadiazolo[3,4-b]pyridin-6-yl}methyl)-2-(trifluoromethoxy)benzamide], 0.096 nM; in that of `Cc1nc2nonc2c(N)c1Cc1ccc(C#N)c(OC2CCN(C)C2)c1` (stereo not drawn) [Compound 21.8, 4-(7-Amino-5-methyl-[1,2,5]oxadiazolo[3,4-b]pyridin-6-ylmethyl)-2-(1-methyl-pyrrolidin-3-yloxy)-benzonitrile], 1.09 nM.

`Cc1nc2nonc2c(N)c1Cc1ccc(-c2cncn2C)nc1` [Compound 12.8, 5-Methyl-6-{[6-(1-methyl-1H-imidazol-5-yl)pyridin-3-yl]methyl}-[1,2,5]oxadiazolo[3,4-b]pyridin-7-amine] returned an IC50 of 0.531 nM. Compared with the last compound, the IC50 is about 2.1-fold lower.

`CNC(=O)c1cc(Cc2c(C)nc3nonc3c2N)ccc1Cl` [Compound 15.4, 5-({7-Amino-5-methyl-[1,2,5]oxadiazolo[3,4-b]pyridin-6-yl}methyl)-2-chloro-N-methylbenzamide]: the midpoint of inhibition, the IC50, lay at 0.933 nM. This IC50 is about 1.8-fold higher than that of the compound before. In the case of `Cc1nc2nonc2c(N)c1Cc1ccc(OC(F)(F)F)c(N=S(C)(C)=O)c1` [Compound 13.2, {[5-({7-Amino-5-methyl-[1,2,5]oxadiazolo[3,4-b]pyridin-6-yl}methyl)-2-(trifluoromethoxy)phenyl]imino}dimethyl-λ^6-sulfanone] it was 0.033 nM; in that of `Cc1nc2nonc2c(N)c1Cc1cccc(-c2ccn[nH]2)c1` [Compound 12.1, 5-Methyl-6-{[3-(1H-pyrazol-5-yl)phenyl]methyl}-[1,2,5]oxadiazolo[3,4-b]pyridin-7-amine], 0.079 nM; in that of `Cc1nc2nonc2c(N)c1Cc1cccc(OC(F)F)c1` [Compound 4.54, 6-{[3-(Difluoromethoxy)phenyl]methyl}-5-methyl-[1,2,5]oxadiazolo[3,4-b]pyridin-7-amine], 0.495 nM. In the case of `Cc1nc2nonc2c(N)c1Cc1ccc(C#N)c(O[C@H]2CCNC2=O)c1` [Compound 21.3, 4-({7-Amino-5-methyl-[1,2,5]oxadiazolo[3,4-b]pyridin-6-yl}methyl)-2-{[(3S)-2-oxopyrrolidin-3-yl]oxy}benzonitrile] it was 1.58 nM.

On to `Cc1nc2nonc2c(N)c1Cc1ccc(C(F)(F)F)nc1` [Compound 4.5, 5-Methyl-6-{[6-(trifluoromethyl)pyridin-3-yl]methyl}-[1,2,5]oxadiazolo[3,4-b]pyridin-7-amine], for which half-maximal inhibition (IC50) required 1.59 nM. The IC50 values of the last two compounds are within 1.5-fold of each other.

`Cc1nc2nonc2c(N)c1Cc1ccc(C(=O)NC(C)CO)cc1` (stereo not drawn) [Compound 14.10, 4-({7-amino-5-methyl-[1,2,5]oxadiazolo[3,4-b]pyridin-6-yl}methyl)-N-(1-hydroxypropan-2-yl)benzamide]: the midpoint of inhibition, the IC50, lay at 4.7 nM.

In turn, `Cc1nc2nonc2c(N)c1Cc1cccc(F)c1` [Compound 4.2, 6-[(3-Fluorophenyl)methyl]-5-methyl-[1,2,5]oxadiazolo[3,4-b]pyridin-7-amine] gave an IC50 of 2.26 nM. `Cc1nc2nonc2c(N)c1Cc1ccc2nccn2c1` [Compound 4.20, 6-Imidazo[1,2-a]pyridin-6-ylmethyl-5-methyl-[1,2,5]oxadiazolo[3,4-b]pyridin-7-ylamine] yielded an IC50 of 5.51 nM.

Regarding `Cc1nc2nonc2c(N)c1Cc1cccc(Br)c1` [Compound 2.6, 6-[(3-Bromophenyl)methyl]-5-methyl-[1,2,5]oxadiazolo[3,4-b]pyridin-7-amine], the IC50 was found to be 1.4 nM. With `COc1cc(Cc2c(Cl)nc3nonc3c2N)ccc1C#N` [Compound 23.7, 4-({7-Amino-5-chloro-[1,2,5]oxadiazolo[3,4-b]pyridin-6-yl}methyl)-2-methoxybenzonitrile] the figure was 0.178 nM; with `CSc1ccc(Cc2c(C)nc3nonc3c2N)cc1` [Compound 4.19, 5-Methyl-6-{[4-(methylsulfanyl)phenyl]methyl}-[1,2,5]oxadiazolo[3,4-b]pyridin-7-amine], 0.174 nM. In turn, `Cc1nc2nonc2c(N)c1Cc1ccc(C(=O)N(C)C)cc1` [Compound 14.2, 4-({7-Amino-5-methyl-[1,2,5]oxadiazolo[3,4-b]pyridin-6-yl}methyl)-N,N-dimethylbenzamide] displayed an IC50 of 0.665 nM.

`Cc1nc2nonc2c(N)c1Cc1ccc(-c2c[nH]nc2C(F)(F)F)nc1` [Compound 12.10, 5-Methyl-6-({6-[3-(trifluoromethyl)-1H-pyrazol-4-yl]pyridin-3-yl}methyl)-[1,2,5]oxadiazolo[3,4-b]pyridin-7-amine] yielded an IC50 of 0.437 nM. With `Cc1nc2nonc2c(N)c1Cc1ccc([S+](C)[O-])cc1` (stereo not drawn) [Compound 18.1, 6-[(4-Methanesulfinylphenyl)methyl]-5-methyl-[1,2,5]oxadiazolo[3,4-b]pyridin-7-amine] the figure was 0.921 nM.

The compound `COc1cc(Cc2c(Cl)nc3nonc3c2N)ccc1C(F)(F)F` [Compound 23.4, 5-Chloro-6-{[3-methoxy-4-(trifluoromethyl)phenyl]methyl}-[1,2,5]oxadiazolo[3,4-b]pyridin-7-amine] gave an IC50 of 0.139 nM. Compared with the last compound, the IC50 is about 6.6-fold lower.
